Data on 10 compounds can be found in patent US20200061062A1, “INHIBITORS OF HUMAN PHOSPHATIDYLINOSITOL 3-KINASE DELTA” (ICOS Corporation, priority 2000, published 2020).

Like-named read-outs stand apart in the source and are kept apart here. Some results are limits rather than exact numbers.

In one series the target is T1, PI3Kα (Homo sapiens, UniProt P42336).
T1 construct: His tag (pFastbac HTb vector) (N); FLAG; made in house; host or cells: Sf21 insect cells (baculovirus)
In words: Biochemical assay of PI3K potency and selectivity using 20 μM ATP, Alpha. The note with it: for Alpha/Delta Ratio: ratio of IC50 values, > = hypothetical ratio with 100 μM substituted for the missing IC50; for IC50: read-out: Alpha IC50. The text has this: (§1) Recombinant PI3K heterodimeric complexes consisting of a p110 catalytic subunit and a p85 regulatory subunit were overexpressed using the BAC-TO-BAC® HT baculovirus expression system (GIBCO/BRL), and then purified for use in biochemical assays. The four Class I PI 3-kinases were cloned into baculovirus vectors as follows: […]

The target of the next series is T2, PI3Kβ (Homo sapiens, UniProt P42338).
T2 construct: His tag (pFastbac HTa vector) (N); FLAG (N); made in house; host or cells: Sf21 insect cells (baculovirus)
T2 sequence (P42338 whole entry): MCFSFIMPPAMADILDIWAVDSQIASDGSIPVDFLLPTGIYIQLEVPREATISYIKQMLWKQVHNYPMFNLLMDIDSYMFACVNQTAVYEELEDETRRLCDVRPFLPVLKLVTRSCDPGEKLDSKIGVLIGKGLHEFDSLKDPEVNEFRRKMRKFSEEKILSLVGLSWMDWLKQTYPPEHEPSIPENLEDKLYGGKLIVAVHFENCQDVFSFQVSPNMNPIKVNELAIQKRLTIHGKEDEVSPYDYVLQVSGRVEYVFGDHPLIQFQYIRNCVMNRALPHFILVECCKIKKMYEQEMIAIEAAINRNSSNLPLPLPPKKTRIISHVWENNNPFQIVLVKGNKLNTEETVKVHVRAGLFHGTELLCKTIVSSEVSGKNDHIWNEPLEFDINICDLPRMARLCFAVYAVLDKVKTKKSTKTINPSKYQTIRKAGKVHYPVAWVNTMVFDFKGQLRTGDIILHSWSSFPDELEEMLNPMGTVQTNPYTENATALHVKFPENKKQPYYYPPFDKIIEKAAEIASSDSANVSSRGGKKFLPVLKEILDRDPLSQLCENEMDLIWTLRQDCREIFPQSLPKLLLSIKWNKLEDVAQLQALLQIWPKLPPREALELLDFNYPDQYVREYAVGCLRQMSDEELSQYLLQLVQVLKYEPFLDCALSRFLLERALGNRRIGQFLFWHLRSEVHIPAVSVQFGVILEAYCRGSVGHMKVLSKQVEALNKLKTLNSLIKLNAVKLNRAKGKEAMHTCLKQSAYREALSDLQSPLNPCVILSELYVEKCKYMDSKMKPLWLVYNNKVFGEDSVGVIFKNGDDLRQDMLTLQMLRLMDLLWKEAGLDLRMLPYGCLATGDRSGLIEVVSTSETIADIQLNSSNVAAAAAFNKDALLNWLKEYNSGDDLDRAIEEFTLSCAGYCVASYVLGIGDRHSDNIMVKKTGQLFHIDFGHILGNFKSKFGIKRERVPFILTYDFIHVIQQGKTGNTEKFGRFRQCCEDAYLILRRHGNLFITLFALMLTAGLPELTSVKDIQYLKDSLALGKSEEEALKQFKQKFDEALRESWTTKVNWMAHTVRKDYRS
T2 sequence (P27986 whole entry partner): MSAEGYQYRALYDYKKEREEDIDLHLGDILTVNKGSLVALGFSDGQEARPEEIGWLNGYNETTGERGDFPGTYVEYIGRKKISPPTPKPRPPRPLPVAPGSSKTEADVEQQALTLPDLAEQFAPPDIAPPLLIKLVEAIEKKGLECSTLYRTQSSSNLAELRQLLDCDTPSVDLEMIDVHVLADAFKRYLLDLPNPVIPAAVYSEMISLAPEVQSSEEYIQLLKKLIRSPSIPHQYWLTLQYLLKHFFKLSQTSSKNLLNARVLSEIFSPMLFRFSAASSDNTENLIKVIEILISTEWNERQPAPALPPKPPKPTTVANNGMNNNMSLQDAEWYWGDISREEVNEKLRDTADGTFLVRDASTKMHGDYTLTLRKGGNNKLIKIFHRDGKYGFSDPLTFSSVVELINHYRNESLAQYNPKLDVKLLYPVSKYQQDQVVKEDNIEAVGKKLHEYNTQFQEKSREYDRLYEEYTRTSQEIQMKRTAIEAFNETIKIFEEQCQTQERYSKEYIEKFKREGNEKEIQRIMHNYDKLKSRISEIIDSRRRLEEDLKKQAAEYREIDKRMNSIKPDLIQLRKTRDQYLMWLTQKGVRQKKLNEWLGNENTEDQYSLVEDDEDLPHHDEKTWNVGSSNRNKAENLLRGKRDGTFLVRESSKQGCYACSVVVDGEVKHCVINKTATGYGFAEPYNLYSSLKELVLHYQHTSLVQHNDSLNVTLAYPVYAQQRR
In words: Biochemical assay of PI3K potency and selectivity using 20 μM ATP, Beta. The note with it: 20 μM ATP; for Beta/Delta Ratio: ratio of IC50 values, > = hypothetical ratio with 100 μM substituted for the missing IC50; for remaining activity at 100 µM: read-out: Beta: percent activity remaining at 100 μM, 100 μM compound did not inhibit by at least 50%; for IC50: read-out: Beta IC50. The method, then:
Recombinant PI3K heterodimeric complexes consisting of a p110 catalytic subunit and a p85 regulatory subunit were overexpressed using the BAC-TO-BAC® HT baculovirus expression system (GIBCO/BRL), and then purified for use in biochemical assays. The four Class I PI 3-kinases were cloned into baculovirus vectors as follows:
The 3× substrate for the HTS contained 0.6 mM Na2ATP, 0.10 mCi/mL γ-[^32P]ATP (NEN, Pittsburgh, Pa.), 6 μM PIP2/PS liposomes (Avanti Polar Lipids, Inc., […].), in 20 mM HEPES, pH 7.4.

A further series addresses PI3Kδ (Homo sapiens, UniProt O00329, S253N). In words: Biochemical assay of PI3K potency and selectivity using 20 μM ATP, Delta. The note with it: 20 μM ATP; read-out: Delta IC50. More on the design: His tag (pFastbac HTb vector) (N); FLAG; made in house; host or cells: Sf21 insect cells (baculovirus).
Text: as §1

The mark [1] stands for this setting: read-out: percent activity remaining at 100 μM, 20 μM ATP, 100 μM compound did not inhibit by at least 50%.

Chain of PI3Kδ (O00329 whole entry S253N): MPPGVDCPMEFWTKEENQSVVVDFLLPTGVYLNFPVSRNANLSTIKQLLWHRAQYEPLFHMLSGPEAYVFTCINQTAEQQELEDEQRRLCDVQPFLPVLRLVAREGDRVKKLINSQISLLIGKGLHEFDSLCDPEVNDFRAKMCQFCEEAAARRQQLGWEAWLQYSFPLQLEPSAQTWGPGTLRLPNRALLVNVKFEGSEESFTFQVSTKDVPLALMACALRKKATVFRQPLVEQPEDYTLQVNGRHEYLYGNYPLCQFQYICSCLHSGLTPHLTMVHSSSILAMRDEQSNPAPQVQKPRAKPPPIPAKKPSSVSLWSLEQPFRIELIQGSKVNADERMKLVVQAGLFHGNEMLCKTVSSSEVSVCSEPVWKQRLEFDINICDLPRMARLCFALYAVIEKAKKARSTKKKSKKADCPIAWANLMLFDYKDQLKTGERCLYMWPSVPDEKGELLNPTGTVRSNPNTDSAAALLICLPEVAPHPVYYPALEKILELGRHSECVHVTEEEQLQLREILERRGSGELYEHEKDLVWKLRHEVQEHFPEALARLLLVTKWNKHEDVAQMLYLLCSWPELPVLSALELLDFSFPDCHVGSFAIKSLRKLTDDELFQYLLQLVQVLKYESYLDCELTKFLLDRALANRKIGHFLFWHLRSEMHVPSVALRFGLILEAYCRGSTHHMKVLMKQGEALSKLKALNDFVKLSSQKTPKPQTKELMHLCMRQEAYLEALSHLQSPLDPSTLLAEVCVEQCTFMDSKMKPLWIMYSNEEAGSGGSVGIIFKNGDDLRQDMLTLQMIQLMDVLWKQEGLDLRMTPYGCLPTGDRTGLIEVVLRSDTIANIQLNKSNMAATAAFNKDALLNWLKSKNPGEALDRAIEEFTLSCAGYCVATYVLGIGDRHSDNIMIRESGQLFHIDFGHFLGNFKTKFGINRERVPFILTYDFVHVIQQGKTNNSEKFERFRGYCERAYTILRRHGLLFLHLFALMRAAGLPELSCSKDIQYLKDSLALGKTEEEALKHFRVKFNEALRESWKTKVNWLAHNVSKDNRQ
Chain of PI3Kδ (P27986 whole entry partner): as the sequence (P27986 whole entry partner) above
T1 sequence (P42336 whole entry): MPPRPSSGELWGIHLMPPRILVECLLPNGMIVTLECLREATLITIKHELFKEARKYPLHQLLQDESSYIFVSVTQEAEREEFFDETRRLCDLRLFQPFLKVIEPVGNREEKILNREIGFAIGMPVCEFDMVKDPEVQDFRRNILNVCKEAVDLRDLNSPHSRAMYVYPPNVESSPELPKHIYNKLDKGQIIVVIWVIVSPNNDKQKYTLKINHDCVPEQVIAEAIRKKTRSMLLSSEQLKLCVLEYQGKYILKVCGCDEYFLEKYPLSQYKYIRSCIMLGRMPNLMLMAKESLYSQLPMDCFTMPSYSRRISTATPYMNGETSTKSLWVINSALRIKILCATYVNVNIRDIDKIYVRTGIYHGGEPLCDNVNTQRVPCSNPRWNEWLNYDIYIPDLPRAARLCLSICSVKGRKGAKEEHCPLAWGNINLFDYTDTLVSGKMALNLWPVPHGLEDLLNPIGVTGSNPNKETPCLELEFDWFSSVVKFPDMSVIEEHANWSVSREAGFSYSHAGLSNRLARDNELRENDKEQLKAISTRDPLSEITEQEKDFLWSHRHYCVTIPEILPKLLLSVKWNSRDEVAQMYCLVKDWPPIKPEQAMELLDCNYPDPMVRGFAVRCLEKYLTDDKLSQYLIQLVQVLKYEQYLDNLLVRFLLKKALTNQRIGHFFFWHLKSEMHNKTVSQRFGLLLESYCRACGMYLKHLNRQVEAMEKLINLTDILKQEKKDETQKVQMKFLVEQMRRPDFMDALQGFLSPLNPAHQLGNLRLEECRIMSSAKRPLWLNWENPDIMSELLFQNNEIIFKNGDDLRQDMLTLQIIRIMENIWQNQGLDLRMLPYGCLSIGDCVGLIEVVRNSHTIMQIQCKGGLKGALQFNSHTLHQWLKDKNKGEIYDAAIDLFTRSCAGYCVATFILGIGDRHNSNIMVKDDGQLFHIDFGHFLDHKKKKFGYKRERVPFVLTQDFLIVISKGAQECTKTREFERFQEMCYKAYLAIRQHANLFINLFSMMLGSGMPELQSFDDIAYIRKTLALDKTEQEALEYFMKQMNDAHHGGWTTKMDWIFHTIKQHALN
T1 sequence (P27986 whole entry partner): as the sequence (P27986 whole entry partner) above

Take `Cc1ccccc1-n1c(Cn2cnc3c(N)ncnc32)nc2cccc(Cl)c2c1=O`: the melting point was in the range of 262 to 266.5 °C.

Take `COc1ccccc1-n1c(CSc2ncnc3[nH]cnc23)nc2ccccc2c1=O` [Compound D-046, 3-(2-methoxyphenyl)-2-(9H-purin-6-ylsulfanylmethyl)-3H-quinazolin-4-one]: on PI3Kα (20 μM ATP, 100 μM compound did not inhibit by at least 50%, 100 µM), the “Alpha IC50 column: percent activity remaining at 100 μM” value worked out at 64%. In addition, the “Alpha/Delta Ratio” value on PI3Kα (20 μM ATP) is given as over 11. In addition, the “Beta/Delta Ratio” value at PI3Kβ came to 11.

In the case of `CC(=O)O.Nc1ncnc2c1ncn2Cc1nc2ccccc2c(=O)n1N1CCOCC1` [Compound D-051, 2-(6-aminopurin-9-ylmethyl)-3-morpholin-4-yl-3H-quinazolin-4-one, acetate salt], the “Alpha/Delta Ratio” value at PI3Kα (20 μM ATP) is given as over 31. Besides, the remaining activity at 100 µM was found to be 89% on PI3Kα (read-out: percent activity remaining at 100 μM) and 57% at PI3Kβ. Also, on PI3Kβ, the “Beta/Delta Ratio” value is over 31. The IC50 at PI3Kδ was 3.3 µM.

For `CC(=O)O.CN1CCN(n2c(CSc3ncnc4[nH]cnc34)nc3ccccc3c2=O)CC1` [Compound D-044, 3-(4-methylpiperazin-1-yl)-2-(9H-purin-6-ylsulfanylmethyl)-3H-quinazolin-4-one, acetate salt], the “Alpha/Delta Ratio” value at PI3Kα (20 μM ATP) stood at 25. The IC50 on PI3Kα (20 μM ATP) turned out to be 105 µM; at PI3Kβ, 61 µM; at PI3Kδ it was 4.2 µM. The “Beta/Delta Ratio” value at PI3Kβ was found to be 15.

`CCCCn1c(Cn2cnc3c(N)ncnc32)nc2ccccc2c1=O` [Compound D-050, 2-(6-aminopurin-9-ylmethyl)-3-butyl-3H-quinazolin-4-one]: the “Alpha/Delta Ratio” value at PI3Kα (20 μM ATP) is listed as over 63. Also, the remaining activity at 100 µM on PI3Kα (setting [1]) stood at 99%. On PI3Kβ, the “Beta/Delta Ratio” value amounted to 26 and the IC50 came to 41 µM. On PI3Kδ, the IC50 was 1.6 µM.

In the case of `COc1cccc(-n2c(CSc3ncnc4[nH]cnc34)nc3ccccc3c2=O)c1` [Compound D-040, 3-(3-methoxyphenyl)-2-(9H-purin-6-ylsulfanylmethyl)-3H-quinazolin-4-one], the “Alpha/Delta Ratio” value on PI3Kα (20 μM ATP) is reported as over 61. For the same compound, at PI3Kα (setting [1]), the remaining activity at 100 µM was determined as 77%. In addition, on PI3Kβ, the “Beta/Delta Ratio” value was over 61 and the remaining activity at 100 µM was found to be 64%. Further, the IC50 at PI3Kδ was found to be 1.7 µM.

Consider `O=c1c2ccccc2nc(CSc2ncnc3[nH]cnc23)n1-c1ccc(Cl)cc1` [Compound D-052, 3-(4-chlorophenyl)-2-(9H-purin-6-ylsulfanylmethyl)-3H-quinazolin-4-one], for which, at PI3Kα (20 μM ATP), the “Alpha/Delta Ratio” value came out at 0.09 and the IC50 was found to be 0.7 µM. At PI3Kβ, the “Beta/Delta Ratio” value is reported as over 13 and the remaining activity at 100 µM is 69%. On PI3Kδ, the IC50 stood at 8 µM.

In turn, `COc1ccccc1-n1c(Cn2cnc3c(N)ncnc32)nc2cccc(Cl)c2c1=O` [Compound D-033, 2-(6-Aminopurin-9-ylmethyl)-5-chloro-3-(2-methoxyphenyl)-3H-quinazolin-4-one] had a melting point of 257 to 257.1 °C.

For `O=c1c2ccccc2nc(CSc2ncnc3[nH]cnc23)n1-c1cccc(Cl)c1` [Compound D-041, 3-(3-chlorophenyl)-2-(9H-purin-6-ylsulfanylmethyl)-3H-quinazolin-4-one], at PI3Kα (20 μM ATP), the “Alpha/Delta Ratio” value is recorded as over 25. The remaining activity at 100 µM at PI3Kα (setting [1]) was determined as 67%; on PI3Kβ, 65%. Moreover, on PI3Kβ, the “Beta/Delta Ratio” value is on record as over 25. The IC50 at PI3Kδ was 4 µM.

Regarding `O=c1c2ccccc2nc(CSc2ncnc3[nH]cnc23)n1-c1ccncc1` [Compound D-042, 2-(9H-purin-6-ylsulfanylmethyl)-3-pyridin-4-yl-3H-quinazolin-4-one], the “Alpha/Delta Ratio” value at PI3Kα (20 μM ATP) is listed as over 32. The remaining activity at 100 µM on PI3Kα (setting [1]) is 70%. Moreover, at PI3Kβ, the “Beta/Delta Ratio” value was 8 and the IC50 was determined as 25 µM. Further, the IC50 on PI3Kδ stood at 3 µM.
